Values of other authors, collected in patent US20220242810A1, “CRYSTALLINE CANNABIGEROL” (Purisys LLC, priority 2019, published 2022).

Experiments:
[1] = system: α2-adrenergic receptor
[2] = system: colon cancer cells; conditions: one study
[3] = biological target: CB2 receptor (Homo sapiens, UniProt P34972); conditions: unknown whether agonist or antagonist
[4] = system: uptake of γ-aminobutyric acid (GABA)
[5] = biological target: T1, 5-HT1A receptor (Homo sapiens, UniProt P08908)
T1 sequence (P08908 1-422): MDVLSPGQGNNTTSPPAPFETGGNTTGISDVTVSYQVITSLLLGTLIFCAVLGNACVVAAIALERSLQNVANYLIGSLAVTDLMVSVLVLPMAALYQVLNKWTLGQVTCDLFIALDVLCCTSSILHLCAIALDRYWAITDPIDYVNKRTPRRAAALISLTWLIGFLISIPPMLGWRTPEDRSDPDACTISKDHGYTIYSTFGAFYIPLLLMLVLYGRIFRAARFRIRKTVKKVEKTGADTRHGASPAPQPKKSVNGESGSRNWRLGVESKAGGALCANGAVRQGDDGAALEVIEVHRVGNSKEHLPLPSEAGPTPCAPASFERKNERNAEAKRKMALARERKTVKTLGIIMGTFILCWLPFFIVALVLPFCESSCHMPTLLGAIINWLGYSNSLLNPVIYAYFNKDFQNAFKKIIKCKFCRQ

[6] = biological target: CBI receptor (Homo sapiens, UniProt P21554)
Sequence of CBI receptor (P21554 whole entry): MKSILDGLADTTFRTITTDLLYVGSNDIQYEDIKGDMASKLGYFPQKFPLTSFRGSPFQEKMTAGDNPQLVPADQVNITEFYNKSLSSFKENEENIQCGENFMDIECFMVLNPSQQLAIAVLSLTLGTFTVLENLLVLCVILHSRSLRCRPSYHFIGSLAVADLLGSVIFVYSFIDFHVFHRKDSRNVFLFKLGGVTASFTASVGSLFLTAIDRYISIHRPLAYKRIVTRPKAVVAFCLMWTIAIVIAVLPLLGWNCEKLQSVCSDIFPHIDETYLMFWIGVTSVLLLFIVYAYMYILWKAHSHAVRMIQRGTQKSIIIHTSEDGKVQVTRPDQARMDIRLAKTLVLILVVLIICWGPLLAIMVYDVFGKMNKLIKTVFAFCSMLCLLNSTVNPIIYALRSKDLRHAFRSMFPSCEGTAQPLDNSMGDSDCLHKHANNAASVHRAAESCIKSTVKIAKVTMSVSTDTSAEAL

[7] = rats
[8] = in vivo

Sequence of CB2 receptor (P34972 whole entry): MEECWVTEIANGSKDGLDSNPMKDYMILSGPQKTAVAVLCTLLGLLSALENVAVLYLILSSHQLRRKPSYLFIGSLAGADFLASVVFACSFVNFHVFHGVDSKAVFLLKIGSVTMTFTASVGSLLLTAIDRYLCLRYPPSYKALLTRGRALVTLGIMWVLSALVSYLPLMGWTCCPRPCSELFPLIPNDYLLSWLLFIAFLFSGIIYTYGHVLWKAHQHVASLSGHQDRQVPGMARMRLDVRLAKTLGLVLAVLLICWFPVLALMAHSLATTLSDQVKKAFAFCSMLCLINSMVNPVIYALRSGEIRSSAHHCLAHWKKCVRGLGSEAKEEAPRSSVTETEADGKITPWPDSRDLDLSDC

## CCCCCc1cc(O)c(C/C=C(\C)CCC=C(C)C)c(O)c1 [CBG, 2-[(2E)-3,7-dimethylocta-2,6-dienyl]-5-pentyl-benzene-1,3-diol]
[1]
  affinity as α2-adrenergic receptor agonist: high affinity
[2]
  growth of colon cancer cells: inhibits the growth
[3]
  binding with the CB2 receptor: known to bind
[4]
  uptake of γ-aminobutyric acid (GABA) in the brain: inhibits the uptake
[5]
  affinity as 5-HT1A receptor antagonist: moderate affinity
[6]
  affinity as CBI receptor antagonist: low affinity
[7]
  anti-nausea and anti-emetic effect: anti-nausea and anti-emetic effect
[8]
  effect on intraocular pressure: relieve intraocular pressure
